Data reported in patent US7645740B2, “Peptide sequence found in Laminin 5 for treating skin impairments” (Laboratoires d'Anjou Centre National de la Recherche …, priority 2004, dated 2010).

Legend:
NHKs = test: Cell adhesion of NHKs to peptide co-immobilized with collagen IV; format: cell-based, human; settings: collagen IV fixed quantity 0.06 mg, 50,000 cells per well, percentage of COL4 alone
Description: Peptides 1, 2 and 3 (variable quantities indicated) and collagen IV (fixed quantity 0.06 mg) were co-immobilized in 96-well plates. 5×104 NHKs were deposited in each well and plates were incubated at 37° C. for 1 hour. After washing, attached cells were fixed and cell adhesion was measured as described in the methodology section. Cell adhesion in the presence of the peptide is given as a percentage of cell adhesion obtained with collagen IV alone. Cells were observed by phase contrast microscopy then photographed. Bar=50 μm.
A decreasing range of LN5 (prepared in the laboratory) and COL4 (BD Biosciences, Le Pont de Claix, France) quantities was made up by successive dilution in PBS. These solutions were immediately distributed into a 96-well culture plate (Costar) at a rate of 100 μl per well. The experiment was conducted in exactly the same way as the experiment described in example 2. The results are given in the form of a graph with the absorbance values representing adhesion on the ordinate and the various substrate concentrations on the abscissa. […]
In order to analyse the effect of the peptide on cell adhesion to DEJ proteins, peptide TALRIRATYGEY (SEQ ID NO.1) (peptide 1) was co-immobilized with LN5 (FIG. 14) and COL4 (FIG. 15). The fixed quantity of matrix protein (LN5 and COL4) and the variable quantity of peptide are given on the graph (FIGS. 14 and 15). […]

[1] = test system: NHK-old (keratinocytes from elderly individuals); test: Cell adhesion of NHK-old to immobilized peptide; format: cell-based, human; settings: 0 to 5 micrograms per well, 1 hour 37° C.
Description: Dose-dependent cell adhesion of NHK-10 years versus NHK-71 years (A) and NHK-11 years versus NHK-60 years (B) peptides TALRIRATYHEY. The peptides were immobilized in 96-well plates at the concentrations given on the abscissa. 3.5×10^4 (A) cells and 4.3×10^4 (B) cells were deposited in each well and plates were incubated at 37° C. for 1 hour. After washing, attached cells were fixed and cell adhesion was measured as described in the methodology section (C). Cells were observed by phase contrast microscopy then photographed. Bar=50 μm.
In order to obtain keratinocytes originating from biopsies taken from young and old individuals and taken from the same anatomical site, the inventors conducted a study of facial skin biopsies. The area of the face situated behind the ears was chosen in order to study only intrinsic aging and to overcome the effects of photo-induced aging. Surgery waste from cosmetic surgery (face lifts) in older individuals and surgery waste from detached ears in young children was collected. It is essential to use biopsies collected on the same day as surgery was performed in order to quickly place the epidermal keratinocytes in culture. Cells from biopsies on elderly individuals (60, 63 and 71 years) and young individuals (8, 10 and 11 years) were used for this study. The keratinocytes were obtained by means of the technique described by Boyce and Ham, 1985. […]

TALRIRATYGEY (Human laminin 5) [Peptide 1]
effect on adhesion of keratinocytes to COL4 (co-immobilized) (NHKs): no significant effect
cell adhesion to immobilized peptide [1]: triggered dose-dependent cell adhesion
